Test [1] concerns Cryptococcus neoformans. As to the kind of experiment: Antifungal activity against Cryptococcus neoformans. The format is functional.
For test [2], the system named is Candida albicans. As to the kind of experiment: Antifungal activity against Candida albicans. The format is functional.

≈ marks a conversion by molar mass, not a printed value.

Regarding `COC1=C(Br)[C@H](O)[C@@]2(C=C1Br)CC(C(=O)NCCc1cn(-c3cc(O)c4[nH]cc(O)c(=O)c4c3O)cn1)=NO2` [CERATINADIN A], the results for the minimum inhibitory concentration (MIC) in test [1] and in test [2] were 4 mg/L (≈ 5.99 µM) and 2 mg/L (≈ 3 µM), respectively.
The corresponding values for `N=c1[nH]cc(CCNC(=O)C2=NO[C@]3(C=C(Br)C(=O)[C@@H](Br)[C@@H]3O)C2)[nH]1` [CERATINADIN C] are > 32 mg/L and > 32 mg/L.
With `COC1=C(Br)[C@H](O)[C@@]2(C=C1Br)CC(C(=O)NCCc1[nH]c(=N)[nH]c1-c1cc(O)c3[nH]cc(O)c(=O)c3c1O)=NO2` [CERATINADIN B], the minimal inhibitory concentration (MIC) (as a rule, the smallest concentration in the dilution series that meets the test's criterion for growth inhibition) in test [1] amounted to 8 mg/L (≈ 11.7 µM); in test [2] it was 4 mg/L (≈ 5.86 µM).
